According to the kinase profiling compilation of Christmann-Franck et al. (2016):
Several values for one entry are separate records, joined by “and”; a condition that tells them apart may be missing. Identical values can stand only once.

What was measured:
Experiment in all cases: radiometric filter-binding kinase assay, Kinase HotSpot
Conditions in all cases: compound 0.5 µM; ATP 10 µM
CDK1 CCNA2 (human) = CDK1 CCNA2 (human) (UniProt P06493+P20248)
GRK6 (human) = GRK6 (human) (UniProt P43250)
NEK3 (human) = NEK3 (human) (UniProt P51956)
MARK2 (human) = MARK2 (human) (UniProt Q7KZI7)
PAK7 (human) = PAK7 (human) (UniProt Q9P286)
CDK4 CCND1 (human) = CDK4 CCND1 (human) (UniProt P24385+P11802)
DAPK2 (human) = DAPK2 (human) (UniProt Q9UIK4)
Chain of DAPK2 (human) (Q9UIK4 whole entry, looked up): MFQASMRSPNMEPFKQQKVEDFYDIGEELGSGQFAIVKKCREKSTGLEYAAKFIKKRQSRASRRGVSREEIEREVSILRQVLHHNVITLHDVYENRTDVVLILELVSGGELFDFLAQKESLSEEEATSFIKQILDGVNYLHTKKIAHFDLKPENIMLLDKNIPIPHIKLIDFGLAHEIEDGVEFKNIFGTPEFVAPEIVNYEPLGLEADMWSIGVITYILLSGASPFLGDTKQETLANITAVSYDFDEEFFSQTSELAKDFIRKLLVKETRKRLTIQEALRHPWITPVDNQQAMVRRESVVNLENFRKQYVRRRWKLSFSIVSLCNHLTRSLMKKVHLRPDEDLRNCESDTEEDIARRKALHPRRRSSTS

MAP3K3 (human) = MAP3K3 (human) (UniProt Q99759)
Chain of MAP3K3 (human) (Q99759 whole entry, looked up): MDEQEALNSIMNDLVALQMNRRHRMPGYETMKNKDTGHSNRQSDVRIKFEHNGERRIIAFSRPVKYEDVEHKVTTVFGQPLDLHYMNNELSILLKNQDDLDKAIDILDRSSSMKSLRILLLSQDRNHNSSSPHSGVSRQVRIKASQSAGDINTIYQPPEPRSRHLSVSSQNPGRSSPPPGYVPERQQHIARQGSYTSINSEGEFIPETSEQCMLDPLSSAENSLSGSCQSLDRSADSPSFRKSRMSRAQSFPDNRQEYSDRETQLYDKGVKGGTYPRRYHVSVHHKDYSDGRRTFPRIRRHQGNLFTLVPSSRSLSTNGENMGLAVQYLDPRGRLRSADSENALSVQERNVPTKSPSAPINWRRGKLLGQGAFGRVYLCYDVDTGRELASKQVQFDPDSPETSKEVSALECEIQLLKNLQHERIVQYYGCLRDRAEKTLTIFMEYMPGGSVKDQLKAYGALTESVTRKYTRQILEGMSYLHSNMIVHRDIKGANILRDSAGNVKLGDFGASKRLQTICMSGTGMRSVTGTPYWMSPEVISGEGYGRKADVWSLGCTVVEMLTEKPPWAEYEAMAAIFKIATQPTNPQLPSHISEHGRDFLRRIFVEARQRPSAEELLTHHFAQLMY

NEK1 (human) = NEK1 (human) (UniProt Q96PY6)
PRKCE (human) = PRKCE (human) (UniProt Q02156)
Chain of PRKCE (human) (Q02156 whole entry, looked up): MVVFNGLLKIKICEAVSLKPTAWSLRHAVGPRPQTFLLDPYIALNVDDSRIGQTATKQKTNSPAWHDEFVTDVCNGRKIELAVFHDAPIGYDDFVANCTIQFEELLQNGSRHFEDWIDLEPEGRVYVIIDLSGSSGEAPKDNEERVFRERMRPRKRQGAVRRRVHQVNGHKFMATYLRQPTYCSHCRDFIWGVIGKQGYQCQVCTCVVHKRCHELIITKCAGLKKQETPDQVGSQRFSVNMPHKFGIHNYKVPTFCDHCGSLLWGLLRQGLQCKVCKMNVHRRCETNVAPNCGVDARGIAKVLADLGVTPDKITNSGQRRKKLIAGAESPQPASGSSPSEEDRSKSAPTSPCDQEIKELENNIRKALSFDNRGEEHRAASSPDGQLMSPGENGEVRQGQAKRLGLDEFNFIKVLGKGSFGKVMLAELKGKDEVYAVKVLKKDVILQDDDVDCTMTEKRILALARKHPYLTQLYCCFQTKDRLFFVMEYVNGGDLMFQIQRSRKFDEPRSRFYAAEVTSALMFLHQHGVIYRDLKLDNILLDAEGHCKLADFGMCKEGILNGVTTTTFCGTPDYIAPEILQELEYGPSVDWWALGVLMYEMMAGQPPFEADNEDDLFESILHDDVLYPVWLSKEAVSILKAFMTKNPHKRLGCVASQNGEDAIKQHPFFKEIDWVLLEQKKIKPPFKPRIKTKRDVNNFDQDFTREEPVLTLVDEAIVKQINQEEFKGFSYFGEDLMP

LIMK1 (human) = LIMK1 (human) (UniProt P53667)
IKBKE (human) = IKBKE (human) (UniProt Q14164)
LRRK2 (human) = LRRK2 (human) (UniProt Q5S007)
TSSK1B (human) = TSSK1B (human) (UniProt Q9BXA7)
BLK (human) = BLK (human) (UniProt P51451)
Chain of BLK (human) (P51451 whole entry, looked up): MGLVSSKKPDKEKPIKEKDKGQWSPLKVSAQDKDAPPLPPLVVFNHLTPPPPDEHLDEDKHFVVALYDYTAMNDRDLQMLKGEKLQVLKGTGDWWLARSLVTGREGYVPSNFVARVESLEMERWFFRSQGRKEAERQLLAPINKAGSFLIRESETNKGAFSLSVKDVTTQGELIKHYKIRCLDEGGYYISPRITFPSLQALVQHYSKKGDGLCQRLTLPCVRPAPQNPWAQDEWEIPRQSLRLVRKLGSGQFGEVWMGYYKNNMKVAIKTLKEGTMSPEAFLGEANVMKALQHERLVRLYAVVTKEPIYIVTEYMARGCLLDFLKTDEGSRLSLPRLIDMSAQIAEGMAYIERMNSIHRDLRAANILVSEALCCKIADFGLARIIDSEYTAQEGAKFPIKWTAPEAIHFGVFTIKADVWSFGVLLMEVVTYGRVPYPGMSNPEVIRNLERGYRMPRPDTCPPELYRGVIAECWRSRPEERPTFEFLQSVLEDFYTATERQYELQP

MARK1 (human) = MARK1 (human) (UniProt Q9P0L2)
STK25 (human) = STK25 (human) (UniProt O00506)
INSR (human) = INSR (human) (UniProt P06213)
NUAK2 (human) = NUAK2 (human) (UniProt Q9H093)
Chain of NUAK2 (human) (Q9H093 whole entry, looked up): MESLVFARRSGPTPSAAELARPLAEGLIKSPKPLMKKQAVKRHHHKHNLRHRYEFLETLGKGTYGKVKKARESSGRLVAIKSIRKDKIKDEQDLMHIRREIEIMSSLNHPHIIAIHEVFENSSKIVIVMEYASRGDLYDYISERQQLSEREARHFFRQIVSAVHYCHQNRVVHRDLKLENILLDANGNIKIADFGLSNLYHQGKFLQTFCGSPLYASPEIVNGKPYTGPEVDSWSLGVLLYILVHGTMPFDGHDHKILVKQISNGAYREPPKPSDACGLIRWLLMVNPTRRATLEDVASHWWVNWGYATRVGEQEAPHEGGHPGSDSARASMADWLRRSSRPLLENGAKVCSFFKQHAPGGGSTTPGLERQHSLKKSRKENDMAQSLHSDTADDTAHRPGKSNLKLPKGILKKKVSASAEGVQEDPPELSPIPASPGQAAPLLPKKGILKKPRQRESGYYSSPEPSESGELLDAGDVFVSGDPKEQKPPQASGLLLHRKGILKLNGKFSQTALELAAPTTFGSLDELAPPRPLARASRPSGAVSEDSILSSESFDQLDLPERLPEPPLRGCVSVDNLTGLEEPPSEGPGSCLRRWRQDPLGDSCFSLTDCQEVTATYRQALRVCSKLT

CSK (human) = CSK (human) (UniProt P41240)
DYRK4 (human) = DYRK4 (human) (UniProt Q9NR20)
MAP3K9 (human) = MAP3K9 (human) (UniProt P80192)
GRK4 (human) = GRK4 (human) (UniProt P32298)
STK10 (human) = STK10 (human) (UniProt O94804)
LYN (human) = LYN (human) (UniProt P07948)
PASK (human) = PASK (human) (UniProt Q96RG2)
DCLK2 (human) = DCLK2 (human) (UniProt Q8N568)
TAOK1 (human) = TAOK1 (human) (UniProt Q7L7X3)
PRKCB1 (human) = PRKCB1 (human) (UniProt P05771)
Chain of PRKCB1 (human) (P05771 whole entry, looked up): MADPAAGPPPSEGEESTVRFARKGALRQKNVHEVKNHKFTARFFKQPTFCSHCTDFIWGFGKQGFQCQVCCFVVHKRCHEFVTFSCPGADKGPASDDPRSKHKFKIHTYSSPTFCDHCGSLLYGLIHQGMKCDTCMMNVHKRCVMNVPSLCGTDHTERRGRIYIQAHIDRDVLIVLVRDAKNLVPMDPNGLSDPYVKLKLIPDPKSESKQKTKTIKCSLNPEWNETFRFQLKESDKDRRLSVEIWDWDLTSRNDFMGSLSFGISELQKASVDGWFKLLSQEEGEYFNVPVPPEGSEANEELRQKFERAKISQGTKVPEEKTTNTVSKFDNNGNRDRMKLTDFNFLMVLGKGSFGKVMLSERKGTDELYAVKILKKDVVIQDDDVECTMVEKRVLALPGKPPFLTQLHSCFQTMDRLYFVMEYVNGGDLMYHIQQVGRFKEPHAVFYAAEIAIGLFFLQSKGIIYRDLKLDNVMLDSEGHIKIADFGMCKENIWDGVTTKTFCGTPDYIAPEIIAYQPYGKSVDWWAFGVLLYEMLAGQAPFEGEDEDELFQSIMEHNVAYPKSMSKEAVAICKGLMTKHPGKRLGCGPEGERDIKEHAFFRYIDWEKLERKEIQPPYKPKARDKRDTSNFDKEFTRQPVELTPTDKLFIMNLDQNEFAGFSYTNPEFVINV

BMX (human) = BMX (human) (UniProt P51813)
STK4 (human) = STK4 (human) (UniProt Q13043)
TNK2 (human) = TNK2 (human) (UniProt Q07912)
PHKG2 (human) = PHKG2 (human) (UniProt P15735)
AURKC (human) = AURKC (human) (UniProt Q9UQB9)
PTK2B (human) = PTK2B (human) (UniProt Q14289)
CDK4 CCND3 (human) = CDK4 CCND3 (human) (UniProt P30281+P11802)
STK11 (human) = STK11 (human) (UniProt Q15831)
PRKCG (human) = PRKCG (human) (UniProt P05129)
EPHA5 (human) = EPHA5 (human) (UniProt P54756)
Chain of EPHA5 (human) (P54756 whole entry, looked up): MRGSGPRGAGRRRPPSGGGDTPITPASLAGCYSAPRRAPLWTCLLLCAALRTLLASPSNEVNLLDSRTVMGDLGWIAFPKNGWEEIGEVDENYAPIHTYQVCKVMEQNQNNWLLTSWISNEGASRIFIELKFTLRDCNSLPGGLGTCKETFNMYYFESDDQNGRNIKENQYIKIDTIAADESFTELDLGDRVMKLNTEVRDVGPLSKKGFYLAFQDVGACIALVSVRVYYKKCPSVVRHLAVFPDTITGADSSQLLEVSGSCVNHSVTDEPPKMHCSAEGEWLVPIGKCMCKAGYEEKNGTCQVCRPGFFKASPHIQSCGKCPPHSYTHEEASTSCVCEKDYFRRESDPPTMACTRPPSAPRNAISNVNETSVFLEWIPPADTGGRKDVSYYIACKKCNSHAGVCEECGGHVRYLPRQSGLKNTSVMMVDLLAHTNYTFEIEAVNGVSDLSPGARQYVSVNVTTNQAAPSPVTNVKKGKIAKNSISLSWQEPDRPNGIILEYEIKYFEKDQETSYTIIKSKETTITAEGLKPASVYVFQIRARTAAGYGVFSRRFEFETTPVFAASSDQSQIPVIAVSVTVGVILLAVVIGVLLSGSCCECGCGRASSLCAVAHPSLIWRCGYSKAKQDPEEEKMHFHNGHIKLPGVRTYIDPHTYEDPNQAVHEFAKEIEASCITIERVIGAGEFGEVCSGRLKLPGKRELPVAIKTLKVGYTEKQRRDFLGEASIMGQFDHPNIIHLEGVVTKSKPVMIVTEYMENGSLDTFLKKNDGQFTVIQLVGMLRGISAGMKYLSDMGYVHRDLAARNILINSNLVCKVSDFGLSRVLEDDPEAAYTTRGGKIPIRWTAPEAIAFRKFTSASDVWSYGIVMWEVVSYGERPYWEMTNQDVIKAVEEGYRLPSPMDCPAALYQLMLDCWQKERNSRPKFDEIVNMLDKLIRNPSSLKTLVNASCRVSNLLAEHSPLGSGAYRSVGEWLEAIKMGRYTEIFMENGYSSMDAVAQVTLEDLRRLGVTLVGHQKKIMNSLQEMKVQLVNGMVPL

MAP3K11 (human) = MAP3K11 (human) (UniProt Q16584)
CAMK4 (human) = CAMK4 (human) (UniProt Q16566)
Chain of CAMK4 (human) (Q16566 whole entry, looked up): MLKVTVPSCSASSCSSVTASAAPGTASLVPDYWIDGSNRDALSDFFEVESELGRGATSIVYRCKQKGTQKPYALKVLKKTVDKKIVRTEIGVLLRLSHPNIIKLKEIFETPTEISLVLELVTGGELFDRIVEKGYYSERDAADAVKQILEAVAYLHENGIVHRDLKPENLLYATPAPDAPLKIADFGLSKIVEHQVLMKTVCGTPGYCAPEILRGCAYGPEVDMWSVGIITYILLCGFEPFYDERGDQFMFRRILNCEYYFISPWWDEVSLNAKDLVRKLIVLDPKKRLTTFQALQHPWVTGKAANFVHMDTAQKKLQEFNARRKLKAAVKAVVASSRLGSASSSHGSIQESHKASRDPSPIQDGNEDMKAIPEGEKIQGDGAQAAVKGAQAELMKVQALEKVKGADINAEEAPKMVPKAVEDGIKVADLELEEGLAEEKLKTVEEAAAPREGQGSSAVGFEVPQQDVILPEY

ACVRL1 (human) = ACVRL1 (human) (UniProt P37023)

For `CSc1nc(-c2ccc(F)cc2)c(-c2ccnc(NC(C)c3ccccc3)c2)[nH]1` (stereo unspecified), the residual activity (CDK1 CCNA2 (human)) was 78%, the residual activity (GRK6 (human)) was 79.8% and the residual activity (NEK3 (human)) was 94.7%. The residual activity (MARK2 (human)) was 90.7%, the residual activity (PAK7 (human)) was 85.3% and the residual activity (CDK4 CCND1 (human)) was 109%. It also gave a residual activity (DAPK2 (human)) of 101%, a residual activity (MAP3K3 (human)) of 80% and a residual activity (NEK1 (human)) of 86.3%. For the same compound, the residual activity (PRKCE (human)) was 87.6%, the residual activity (LIMK1 (human)) was 103% and the residual activity (IKBKE (human)) was 84%. The residual activity (LRRK2 (human)) was 100%, the residual activity (TSSK1B (human)) was 73.5% and the residual activity (BLK (human)) was 110%. The residual activity (MARK1 (human)) was 95.3%, the residual activity (STK25 (human)) was 118% and the residual activity (INSR (human)) was 100%. It also gave a residual activity (NUAK2 (human)) of 86.5%, a residual activity (CSK (human)) of 82.4% and a residual activity (DYRK4 (human)) of 91.4%. The residual activity (MAP3K9 (human)) was 101%, the residual activity (GRK4 (human)) was 90.6% and the residual activity (STK10 (human)) was 86.8%. The residual activity (LYN (human)) was 89.4% and 98.5%, the residual activity (PASK (human)) was 95.7% and the residual activity (DCLK2 (human)) was 92.7%. The residual activity (TAOK1 (human)) was 79.9%, the residual activity (PRKCB1 (human)) was 92.2% and the residual activity (BMX (human)) was 102%. For the same compound, the residual activity (STK4 (human)) was 89.8%, the residual activity (TNK2 (human)) was 78.4% and the residual activity (PHKG2 (human)) was 125%. It also gave a residual activity (AURKC (human)) of 100%, a residual activity (PTK2B (human)) of 100% and a residual activity (CDK4 CCND3 (human)) of 111%. For the same compound, the residual activity (STK11 (human)) was 95.4%, the residual activity (PRKCG (human)) was 101% and the residual activity (EPHA5 (human)) was 106%. For the same compound, the residual activity (MAP3K11 (human)) was 101%, the residual activity (CAMK4 (human)) was 106% and the residual activity (ACVRL1 (human)) was 92.2%.

For `CC(C)[C@H](CO)Nc1nc(Nc2cccc(Cl)c2)c2ncn(C(C)C)c2n1`, the residual activity (CDK1 CCNA2 (human)) was 31.7%, the residual activity (GRK6 (human)) was 98.3% and the residual activity (NEK3 (human)) was 94.2%. The residual activity (MARK2 (human)) was 95.7%, the residual activity (PAK7 (human)) was 76.8% and the residual activity (CDK4 CCND1 (human)) was 83.4%. The residual activity (DAPK2 (human)) was 111%, the residual activity (MAP3K3 (human)) was 102% and the residual activity (NEK1 (human)) was 107%. It also gave a residual activity (PRKCE (human)) of 115%, a residual activity (LIMK1 (human)) of 86.3% and a residual activity (IKBKE (human)) of 99.2%. The residual activity (LRRK2 (human)) was 77.7%, the residual activity (TSSK1B (human)) was 102% and the residual activity (BLK (human)) was 68.8%. It also gave a residual activity (MARK1 (human)) of 94.5%, a residual activity (STK25 (human)) of 116% and a residual activity (INSR (human)) of 83%. It also gave a residual activity (NUAK2 (human)) of 134%, a residual activity (CSK (human)) of 98.1% and a residual activity (DYRK4 (human)) of 91.2%. The residual activity (MAP3K9 (human)) was 37.8%, the residual activity (GRK4 (human)) was 91.1% and the residual activity (STK10 (human)) was 81.8%. For the same compound, the residual activity (LYN (human)) was 60.2% and 82.5%, the residual activity (PASK (human)) was 93.1% and the residual activity (DCLK2 (human)) was 100%. It also gave a residual activity (TAOK1 (human)) of 95.4%, a residual activity (PRKCB1 (human)) of 102% and a residual activity (BMX (human)) of 84.3%. For the same compound, the residual activity (STK4 (human)) was 87.7%, the residual activity (TNK2 (human)) was 55.6% and the residual activity (PHKG2 (human)) was 117%. For the same compound, the residual activity (AURKC (human)) was 93.2%, the residual activity (PTK2B (human)) was 66.5% and the residual activity (CDK4 CCND3 (human)) was 88.3%. For the same compound, the residual activity (STK11 (human)) was 84.4%, the residual activity (PRKCG (human)) was 98.2% and the residual activity (EPHA5 (human)) was 87.9%. For the same compound, the residual activity (MAP3K11 (human)) was 40.2%, the residual activity (CAMK4 (human)) was 95.3% and the residual activity (ACVRL1 (human)) was 96.7%.

`COc1ccc(-c2cnc3c(-c4ccsc4)cnn3c2)cc1` was tested, and the residual activity (CDK1 CCNA2 (human)) was 87.4%, the residual activity (GRK6 (human)) was 99.9% and the residual activity (NEK3 (human)) was 87.7%. For the same compound, the residual activity (MARK2 (human)) was 82.1%, the residual activity (PAK7 (human)) was 78.1% and the residual activity (CDK4 CCND1 (human)) was 69.8%. For the same compound, the residual activity (DAPK2 (human)) was 87.4%, the residual activity (MAP3K3 (human)) was 99.4% and the residual activity (NEK1 (human)) was 89.4%. It also gave a residual activity (PRKCE (human)) of 103%, a residual activity (LIMK1 (human)) of 71.2% and a residual activity (IKBKE (human)) of 85.5%. It also gave a residual activity (LRRK2 (human)) of 68.1%, a residual activity (TSSK1B (human)) of 99.1% and a residual activity (BLK (human)) of 83.5%. It also gave a residual activity (MARK1 (human)) of 98.9%, a residual activity (STK25 (human)) of 102% and a residual activity (INSR (human)) of 92.5%. For the same compound, the residual activity (NUAK2 (human)) was 138%, the residual activity (CSK (human)) was 95.3% and the residual activity (DYRK4 (human)) was 129%. The residual activity (MAP3K9 (human)) was 65.6%, the residual activity (GRK4 (human)) was 97% and the residual activity (STK10 (human)) was 81.6%. The residual activity (LYN (human)) was 81.8% and 92.7%, the residual activity (PASK (human)) was 79.5% and the residual activity (DCLK2 (human)) was 97.5%. The residual activity (TAOK1 (human)) was 105%, the residual activity (PRKCB1 (human)) was 101% and the residual activity (BMX (human)) was 90.6%. The residual activity (STK4 (human)) was 97.3%, the residual activity (TNK2 (human)) was 92.2% and the residual activity (PHKG2 (human)) was 92.3%. The residual activity (AURKC (human)) was 75.3%, the residual activity (PTK2B (human)) was 81.8% and the residual activity (CDK4 CCND3 (human)) was 82.9%. For the same compound, the residual activity (STK11 (human)) was 95.9%, the residual activity (PRKCG (human)) was 112% and the residual activity (EPHA5 (human)) was 89.1%. It also gave a residual activity (MAP3K11 (human)) of 51.9%, a residual activity (CAMK4 (human)) of 98.4% and a residual activity (ACVRL1 (human)) of 76.4%.
